Patent US8921320B2, “Targeted osmotic lysis of cancer cells” (Board of Supervisors of Louisiana State University and …, priority 2011, dated 2014)
“Also recorded” adds a separate entry of the source. Where two headings read alike, the source gives them in different places.

Legend:
MDA-MB-231 tumors [1] = test: Tumor growth following a single TOL treatment; format: in vivo, J/Nu mice; conditions: single treatment Day 0: ouabain 10 mg/kg + 2×1 min electrical stimulation; cross-sectional area followed three weeks; p<0.01
Description: When vascularized tumors became apparent, mice were divided into 4 treatment groups: Saline-No stimulation; Saline-Stimulation (2×1 min electrical stimulation); Ouabain (10 mg/kg)-No stimulation; and Ouabain (10 mg/kg)-Stimulation (2×1 min electrical stimulation). Only a single treatment was given for each treatment group on Day 0 of FIG. 2. Tumor cross-sectional area was then measured with calipers every-other day for three weeks. The tumor growth was expressed as a percent pre-treatment size and plotted against time.

[2] = system: MDA-MB-231 breast cancer cells; test: cells; format: cell-based; conditions: alamar blue added after 1 hr, read 4 hr later
Description: The effect of the combination of ouabain (a sodium pump inhibitor) and veratridine (a sodium […]) on viability of cultured MDA-MB-231 and MCF-7 breast cancer cells was assessed. The former cells over-express VGSCs by more than 1000-fold, whereas the latter cells over-express VGSCs by 100-fold (24). MDA-MB-231 cells were cultured in DMEM, whereas MCF-7 cells were cultured in DMEM+10 μM insulin. After centrifugation, both cell lines were re-suspended in DMEM+10 μM insulin to assure normal functioning of Na^+, K^+-ATPase, and approximately 5000 cells were added to each well in a 96-well plate in a volume of 100 μl. After 18 hr, the media was aspirated, and the cells were treated with 100 μl DMEM+10 μM insulin (“media”) alone, media+100 nM ouabain, media+30 μM veratridine, or media+100 nM ouabain+30 μM veratridine. After 1 hr, […] alamar blue was added to each well, and cell viability determined 4 hr after this addition. All determinations were obtained in quadruplicate, and the experiment repeated three times. […] Veratridine alone reduced viability of MDL-MB-231 cells by 15% (FIG. 1) compared to media alone-treated cells. In this initial experiment, ouabain combined with veratridine produced a 30% reduction in cell viability. In MCF-7 cells, none of the treatments affected cell viability (Data not shown). […]

MCF-7 (breast cancer) = test: Time to lysis of cultured cancer cells (drug + electrical stimulation); format: cell-based; conditions: 100 nM ouabain, 2 V DC, 200 pulses per second, 5 min limit
Description: (§1) Cell lines were: MDA-MB-231 (breast cancer); MCF-7 (breast cancer; ATCC# HTB-22); LNCaP (prostate cancer; ATCC# CRL-1740); DU145 (prostate cancer; ATCC# HTB-81); MCA-38 (colon cancer; from Dr. Augusto Ochoa); A549 (non-small cell lung cancer; ATCC# CCL-185); and 3LL (non-small cell lung cancer; from Dr. Augusto Ochoa, Louisiana State University, New Orleans, La.). Cells were plated in 35 mm diameter culture dishes in Dulbecco's Modified Eagle's Medium (DMEM, Gibco) supplemented with 4 mM L-glutamine, 1 mM sodium pyruvate and 10 μM insulin for 18-24 hr. […] A 2 V DC current, 200 pulses per second was passed across individual cells using a Grass Model SD9 stimulator (Grass Instruments, Quincy, Mass.) through platinum wire electrodes held in place with a David Kopf Instrument micromanipulator (Tarzana, Calif.), and the time to lysis was measured. Video recordings of representative experiments were prepared digitally using a Canon Vixia HFM400 camera attached to Leica DM IL microscope, and are available upon request.

[3] = system: A549 (non-small cell lung cancer); test: as above; format: cell-based; conditions: 100 nM ouabain, 2 V DC, 200 pulses per second, 5 min limit
Description: as §1

[4] = system: muscle, peripheral nerves, heart, and brain; format: in vivo, J/Nu mice
Description: As an in vivo model of cancer, MDA-MB-231 cells were suspended in matrigel and injected subcutaneously into the backs of 5 nude (J-NU) mice. Each mouse developed 0.75-1.2 cm tumors in 3-5 weeks. The mice were then injected subcutaneously with 10 mg/kg ouabain or saline. After 30 min, the mice were anesthetized with 4% isoflurane, and the tumors exposed through a small incision in the skin. An anode and a cathode were inserted into each tumor, and a train of 120 1 V DC pulses (10 msec, 2 Hz for 1 min) was delivered through the anode and cathode as discussed above. A total of 11 tumors were tested. Three tumors were from mice treated with ouabain and electrically stimulated (O-ES experimental). Of the rest, two were from a mouse treated with saline and not electrically stimulated (S-NS control), three were from mice treated with ouabain but not electrically stimulated (O-NS control), and three were from mice treated with saline and electrically stimulated (S-ES control). The electrical stimulation was repeated 15 and 30 min later. One day later, mice were sacrificed with an overdose of Nat pentobarbital, perfused with 4% buffered paraformaldehyde, and the tumors removed. The tumors were sectioned at 5 μm and stained with hematoxylin and eosin. […]

DU145 (prostate cancer) = test: Time to lysis of cultured cancer cells (drug + electrical stimulation); format: cell-based; conditions: 2 V DC, 200 pulses per second, 5 min limit
Description: as §1, with “We also used two cardiac glycoside drugs that are currently FDA-approved for clinical use, ouabain and digoxin, for in vitro lysis of multiple lines of carcinoma. […] Cell lines” for “Cell lines”, “upon request. […] All of the cancer cells lysed, with the time to lysis faster for the cells with the largest known expression of VGSCs.” for “upon request.”

LNCaP (prostate cancer) = test: as above; format: cell-based; conditions: 2 V DC, 200 pulses per second, 5 min limit
Description: as §1, with “We also used two cardiac glycoside drugs that are currently FDA-approved for clinical use, ouabain and digoxin, for in vitro lysis of multiple lines of carcinoma. […] Cell lines” for “Cell lines”, “upon request. […] All of the cancer cells lysed, with the time to lysis faster for the cells with the largest known expression of VGSCs.” for “upon request.”

[5] = system: MDA-MB-231 (breast cancer); test: as above; format: cell-based; conditions: 2 V DC, 200 pulses per second, 5 min limit
Description: as §1, with “We also used two cardiac glycoside drugs that are currently FDA-approved for clinical use, ouabain and digoxin, for in vitro lysis of multiple lines of carcinoma. […] Cell lines” for “Cell lines”, “upon request. […] All of the cancer cells lysed, with the time to lysis faster for the cells with the largest known expression of VGSCs.” for “upon request.”

[6] = system: 3LL (non-small cell lung cancer); test: as above; format: cell-based; conditions: 2 V DC, 200 pulses per second, 5 min limit
Description: as §1, with “We also used two cardiac glycoside drugs that are currently FDA-approved for clinical use, ouabain and digoxin, for in vitro lysis of multiple lines of carcinoma. […] Cell lines” for “Cell lines”, “upon request. […] All of the cancer cells lysed, with the time to lysis faster for the cells with the largest known expression of VGSCs.” for “upon request.”

MCA-38 (colon cancer) = test: as above; format: cell-based; conditions: 2 V DC, 200 pulses per second, 5 min limit
Description: as §1, with “We also used two cardiac glycoside drugs that are currently FDA-approved for clinical use, ouabain and digoxin, for in vitro lysis of multiple lines of carcinoma. […] Cell lines” for “Cell lines”, “upon request. […] All of the cancer cells lysed, with the time to lysis faster for the cells with the largest known expression of VGSCs.” for “upon request.”

MDA-MB-231 tumors [7] = test: In vivo TOL in breast cancer xenografts, tumor histology (hematoxylin and eosin); parameters: species or system nude (J-NU) mice
Description: As an in vivo model of cancer, MDA-MB-231 cells were suspended in matrigel and injected subcutaneously into the backs of 5 nude (J-NU) mice. Each mouse developed 0.75-1.2 cm tumors in 3-5 weeks. The mice were then injected subcutaneously with 10 mg/kg ouabain or saline. After 30 min, the mice were anesthetized with 4% isoflurane, and the tumors exposed through a small incision in the skin. An anode and a cathode were inserted into each tumor, and a train of 120 1 V DC pulses (10 msec, 2 Hz for 1 min) was delivered through the anode and cathode as discussed above. A total of 11 tumors were tested. Three tumors were from mice treated with ouabain and electrically stimulated (O-ES experimental). Of the rest, two were from a mouse treated with saline and not electrically stimulated (S-NS control), three were from mice treated with ouabain but not electrically stimulated (O-NS control), and three were from mice treated with saline and electrically stimulated (S-ES control). The electrical stimulation was repeated 15 and 30 min later. One day later, mice were sacrificed with an overdose of Nat pentobarbital, perfused with 4% buffered paraformaldehyde, and the tumors removed. The tumors were sectioned at 5 μm and stained with hematoxylin and eosin. […] The other two mice in the O-ES group had tumors that were not highly vascularized, and thus the ouabain could not efficiently distribute to the tumor cells.
As an in vivo model of cancer, we injected 4 million MDA-MB-231 cells, suspended in matrigel, subcutaneously into the backs of 5 nude (J-NU) mice. Each mouse developed 0.75-1.2 cm tumors in 3-5 weeks. The mice were injected subcutaneously with 10 mg/kg ouabain or saline and then after 30 min anesthetized with 4% isoflurane. The tumors of the mice were exposed through a small incision in the skin. An anode and a cathode were inserted into each tumor, and a train of 120 1 V DC pulses (10 msec, 2 pulses per second for 1 min) using the Grass SD9 stimulator was delivered through a copper anode and cathode. Some controls received no stimulation. A total of 11 tumors were tested. Three tumors were from mice treated with 10 mg/kg s.c. ouabain and electrically stimulated (O-ES experimental). […]
This experiment was repeated using 10 mice (2 per control group and 4 in the experimental group.) Four million MDA-MB-231 cells suspended in 50% matrigel were injected s.c. in J/Nu mice, and tumors allowed to grow until visibly vascularized (reddish in appearance.) Stimulation parameters were 10 V DC, 1 msec pulses @ 200 pulses per second. […] One day later, animals were sacrificed, perfused, tumors removed, and prepared for hematoxylin and eosin staining Stained sections from each of the tumors were evaluated by a trained histologist.

[8] = system: MDA-MB-231 breast cancer cells; format: cell-based
Description: The effectiveness of TOL has been tested using an in vitro model for breast cancer. MDA-MB-231 breast cancer cells were cultured to complete confluency in 96-well plates. These breast cancer cells are known to over-express VGSCs by 1400-fold. These cells were exposed to Dulbecco's modified Eagle's medium (DMEM), or the cardiac glycoside drugs (known sodium pump inhibitors) ouabain (10 pM-100 nM; Sigma Chemical Co., St. Louis, Mo.) or digitoxin (100 pM-1 μM; Sigma) dissolved in DMEM for 30 min. After exposure to the sodium pump inhibitors, an electric current (0 V, 100 mV, or 1 V DC) was passed across the cells using an anode and a cathode placed touching the bottom of each well or an etched circuit in the bottom of the plate. The electric current was generated using a Grass Model SD9 stimulator (Grass Instruments, Quincy, Mass.) through platinum wire electrodes.
Initially we cultured MDA-MB-231 (ATCC, Manassas, Va., cat #HTB-26) breast cancer cells to complete confluency in 96-well plates. These cells over-express VGSCs by 100-fold. […] An electric current (0 V, 100 mV, or 1 V DC) was passed across the cells by means of an anode and a cathode placed touching the bottom of each well as in Example 1.

C[C@@H]1O[C@@H](O[C@H]2C[C@@H](O)[C@]3(CO)[C@H]4[C@H](O)C[C@]5(C)[C@@H](C6=CC(=O)OC6)CC[C@]5(O)[C@@H]4CC[C@]3(O)C2)[C@H](O)[C@H](O)[C@H]1O [ouabain]
tumor size smaller than in the three other groups (MDA-MB-231 tumors [1]): 70%
change in cell viability compared to media-only controls ([2]; 100 nM ouabain alone): no decrease in cell viability
Mean time-to-lysis ± SEM, Ouabain + Stimulation (MCF-7 (breast cancer)): 170.5 ± 15.35 s
Mean time-to-lysis ± SEM, Ouabain + Stimulation [3]: 149.9 ± 11.70 s
lysis in healthy muscle, peripheral nerves, heart, and brain ([4]; 10 mg/kg ouabain s.c., tissues electrically stimulated after 30 min, one day later): None of these tissues showed signs of lysis
cell death in normal muscle taken from the base of the tumor ([4]; 10 mg/kg s.c. ouabain + electrical stimulation (1 V DC), same mouse as the tumor with 80% cell death): no sign of cell death
Mean time-to-lysis ± SEM, Ouabain + Stimulation (DU145 (prostate cancer); 100 nM ouabain): 81.6 ± 3.96 s
Mean time-to-lysis ± SEM, Ouabain + Stimulation (LNCaP (prostate cancer); 100 nM ouabain): 143.1 ± 5.78 s
Mean time-to-lysis ± SEM, Ouabain + Stimulation ([5]; 100 nM ouabain 15-45 min): 69.3 ± 4.82 s
Mean time-to-lysis ± SEM, Ouabain + Stimulation ([6]; 100 nM ouabain): 115.9 ± 3.33 s
Mean time-to-lysis ± SEM, Ouabain + Stimulation (MCA-38 (colon cancer); 100 nM ouabain): 74.0 ± 1.0 s
lysis in tumors that were not highly vascularized (MDA-MB-231 tumors [7]; 10 mg/kg s.c. ouabain + electrical stimulation (1 V DC), the other two mice of the O-ES group): no lysis was seen
tumor cell death after treatment (MDA-MB-231 tumors [7]; 10 mg/kg s.c. ouabain + electrical stimulation (120 1 V DC pulses, repeated 15 and 30 min later), one of three O-ES tumors, one day later): 80%
cell lysis in tumors, ouabain without electrical stimulation (O-NS control) (MDA-MB-231 tumors [7]; 10 mg/kg s.c. ouabain, no stimulation, three tumors, one day later): None of the tumors in any of the other three treatments showed any sign of cell lysis; also recorded: None of the tumors in any of the three control treatments showed any sign of cell lysis
lysis in control tumors (incl. ouabain without stimulation) (MDA-MB-231 tumors [7]; repeat experiment, 10 mice, 2 per control group, 10 mg/kg s.c. ouabain): none of the controls showed any sign of lysis
cancer cell death in wells ([8]; ≧1 nM ouabain 30 min, then 100 mV or 1 V DC electric current, 6 of 24 wells (ouabain or digoxin)): every cancer cell died; also recorded: all cancer cells died

COc1ccc(C(=O)O[C@H]2CC[C@@]3(C)[C@@H]4CC[C@H]5[C@]6(O)C[C@H](O)[C@@]7(O)[C@@H](CN8C[C@@H](C)CC[C@H]8[C@@]7(C)O)[C@]6(O)C[C@@]53O[C@]24O)cc1OC [veratridine]
cytotoxicity at 30 µM ([2]; Homo sapiens, 30 μM veratridine alone, read-out: reduction in cell viability compared to media alone): 15%

C[C@H]1O[C@@H](O[C@H]2[C@@H](O)C[C@H](O[C@H]3[C@@H](O)C[C@H](O[C@H]4CC[C@@]5(C)[C@H](CC[C@@H]6[C@@H]5C[C@@H](O)[C@]5(C)[C@@H](C7=CC(=O)OC7)CC[C@]65O)C4)O[C@@H]3C)O[C@@H]2C)C[C@H](O)[C@@H]1O [digoxin]
Mean time-to-lysis ± SEM, Digoxin + Stimulation (DU145 (prostate cancer); 1 μM digoxin): 111.3 ± 9.7 s
Mean time-to-lysis ± SEM, Digoxin + Stimulation (LNCaP (prostate cancer); 1 μM digoxin): 122.9 ± 3.13 s
Mean time-to-lysis ± SEM, Digoxin + Stimulation ([5]; 1 μM digoxin 15-45 min): 68.39 ± 7.31 s
Mean time-to-lysis ± SEM, Digoxin + Stimulation ([6]; 1 μM digoxin): 163.75 ± 8.27 s
Mean time-to-lysis ± SEM, Digoxin + Stimulation (MCA-38 (colon cancer); 1 μM digoxin): 122.7 ± 9.02 s
cancer cell death in wells [8]: every cancer cell died; also recorded: all cancer cells died
